From paper PMC10030390, “A phase 1 open-label study to assess the relative bioavailability of TAK-931 tablets in reference to powder-in-capsule in patients with advanced solid tumors” (Investigational New Drugs, 2022)
Values joined by “and” are separate entries in the source; they are usually repeats but may differ in a detail not shown here. Identical values can stand only once. Like-named read-outs stand apart in the source and are kept apart here.

What was measured:
[1] = system: locally advanced or metastatic solid tumors; experiment: Antitumor activity, investigator-assessed disease response (RECIST v1.1); format: in vivo, human
Description: The primary endpoints were the ratio of geometric means of the following PK parameters for TAK-931 tablets in reference to PIC and associated 2-sided 90% confidence intervals (CIs): maximum observed plasma concentration (Cmax), area under the plasma concentration–time curve (AUC) from time 0 to time of the last quantifiable concentration (AUClast), and the AUC from time 0 to infinity (AUCinf). Secondary endpoints were PK parameters of TAK-931 80 mg following a single-dose administration as PIC or tablet (time of first occurrence of maximum observed plasma concentration [Tmax], and terminal disposition phase half-life [T1/2z]), antitumor activity, and safety.

solid tumors = system: solid tumors; design: method as in earlier work; conditions: of 24 response-evaluable patients, first-in-human phase 1 study; cited from earlier work
[2] = design: method as in NCT02699749; conditions: estimated from preliminary data, ref NCT02699749; cited from earlier work

For `Cc1[nH]ncc1-c1cc2nc([C@@H]3CC4CCN3CC4)[nH]c(=O)c2s1` [TAK-931], the “partial or complete responses” value ([1]; 19 patients evaluable for response) was “No partial or complete responses”, the “Median time to PD or death” value ([1]; 95% CI: 1.6–2.8) was 1.9 months and the “individual progression-free survival durations of patients with SD” value ([1]; four patients with best response SD, + = censored observation) was 3.58 months and ≥ 2.23 months and 3.55 months and 4.01 months. The On-study deaths (PIC/Tablet sequence, n = 12) was 0 n (%), the On-study deaths (Tablet/PIC sequence, n = 8) was 1 (13) n (%) and the “Dose modification: Dose increased” value (human, in vivo) was 0 n (%). The “Serious TEAEs: Not related” value (human, in vivo) was 2 (25) n (%) and 2 (17) n (%) and 4 (20) n (%), the “TEAE Alopecia, Any-grade” value (human, in vivo) was 6 (30) n (%) and the “TEAE Constipation, Any-grade” value (human, in vivo) was 8 (40) n (%). The “TEAE Decreased appetite, Any-grade” value (human, in vivo) was 4 (20) n (%), the “TEAE Disturbance in attention, Any-grade” value (human, in vivo) was 2 (10) n (%) and the “TEAE Dyspnea, Any-grade” value (human, in vivo) was 3 (15) n (%). For the same compound, the “TEAE Dyspnea, Grade ≥ 3” value (human, in vivo) was 1 (5) n (%), the “TEAE Fatigue, Any-grade” value (human, in vivo) was 13 (65) n (%) and the “TEAE Fatigue, Grade ≥ 3” value (human, in vivo) was 1 (5) n (%). For the same compound, the “TEAE Headache, Any-grade” value (human, in vivo) was 3 (15) n (%), the “TEAE Hypertension, Any-grade” value (human, in vivo) was 3 (15) n (%) and the “TEAE Hypertension, Grade ≥ 3” value (human, in vivo) was 1 (5) n (%). The “TEAE Hypokalemia, Any-grade” value (human, in vivo) was 1 (5) n (%), the “TEAE Hypokalemia, Grade ≥ 3” value (human, in vivo) was 1 (5) n (%) and the “TEAE Ileus, Any-grade” value (human, in vivo) was 2 (10) n (%). The “TEAE Ileus, Grade ≥ 3” value (human, in vivo) was 2 (10) n (%), the “TEAE Nausea, Any-grade” value (human, in vivo) was 8 (40) n (%) and the “TEAE Neutropenia, Any-grade” value (human, in vivo) was 2 (10) n (%). For the same compound, the “TEAE Neutropenia, Grade ≥ 3” value (human, in vivo) was 2 (10) n (%), the “TEAE Pneumonia, Any-grade” value (human, in vivo) was 1 (5) n (%) and the “TEAE Pneumonia, Grade ≥ 3” value (human, in vivo) was 1 (5) n (%). For the same compound, the “TEAE Rectal cancer, Any-grade” value (human, in vivo) was 1 (5) n (%), the “TEAE Rectal cancer, Grade ≥ 3” value (human, in vivo) was 1 (5) n (%) and the “TEAE Vomiting, Any-grade” value (human, in vivo) was 6 (30) n (%). For the same compound, the “TEAE Weight decrease, Any-grade” value (human, in vivo) was 3 (15) n (%), the “patients with TEAE alopecia” value (human, in vivo) was 30% and the “patients with TEAE constipation” value (human, in vivo) was 40%. For the same compound, the “patients with TEAE fatigue” value (human, in vivo) was 65%, the “patients with TEAE nausea” value (human, in vivo) was 40% and the “patients with TEAE vomiting” value (human, in vivo) was 30%. The “patients with grade ≥ 3 TEAE ileus” value (human, in vivo) was 10%, the “patients with grade ≥ 3 TEAE neutropenia” value (human, in vivo) was 10% and the “patients with treatment-related TEAE alopecia” value (human, in vivo) was 30%. The “patients with treatment-related TEAE decreased appetite” value (human, in vivo) was 20%, the “patients with treatment-related TEAE fatigue” value (human, in vivo) was 50% and the “patients with treatment-related TEAE nausea” value (human, in vivo) was 30%. The “patients with treatment-related TEAE vomiting” value (human, in vivo) was 20%, the “patients with a partial response” value (solid tumors) was 3 and the “patients with prolonged SD” value (solid tumors) was 4. The “within-patient coefficient of variation for AUC” value [2] was 35.0% and the “within-patient coefficient of variation for Cmax” value [2] was 36.9%.
